Data from article PMC4438668, “Quantitative High-Throughput Identification of Drugs as Modulators of Human Constitutive Androstane Receptor” (Scientific Reports, 2015).
“Also recorded” adds a separate entry of the source.

Assays:
human CAR (hCAR) [1] = target: T1, human CAR (hCAR) (Homo sapiens, UniProt Q14994); assay: hCAR luciferase reporter qHTS, agonist mode (HepG2-CYP2B6-hCAR cells, PK11195 co-treatment); conditions: for EC50 / Follow-up Confirmation Efficacy / Primary Screen Efficacy: agonist mode; for Follow-up Confirmation Efficacy: relative to CITCO (100%); for Primary Screen Efficacy: relative to CITCO Emax (100%)
T1 sequence (Q14994 1-348 isoform Q14994-2): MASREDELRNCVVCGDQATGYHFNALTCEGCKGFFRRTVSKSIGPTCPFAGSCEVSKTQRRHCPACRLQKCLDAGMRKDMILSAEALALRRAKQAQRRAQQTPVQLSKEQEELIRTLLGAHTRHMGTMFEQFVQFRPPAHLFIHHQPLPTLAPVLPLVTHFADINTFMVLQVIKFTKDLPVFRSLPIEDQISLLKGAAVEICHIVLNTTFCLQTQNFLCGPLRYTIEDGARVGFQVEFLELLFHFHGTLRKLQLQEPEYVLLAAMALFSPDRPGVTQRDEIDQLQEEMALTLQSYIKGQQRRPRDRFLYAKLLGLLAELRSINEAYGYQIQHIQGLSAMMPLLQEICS

EYFP-hCAR = target: T2, EYFP-hCAR (Homo sapiens, UniProt Q14994); assay: Nuclear translocation of Ad/EYFP-hCAR in human primary hepatocytes; type: cell-based; conditions: HPH
T2 construct: expressed in transfected cells; host or cells: human primary hepatocytes infected with Ad/EYFP-hCAR
T2 sequence (Q14994 1-348 isoform Q14994-2): T1 sequence (Q14994 1-348 isoform Q14994-2)
Experimental: A recombinant adenovirus expressing enhanced yellow fluorescent protein-tagged hCAR (Ad/EYFP-hCAR) was generated as described previously. Hepatocytes cultured in 96-well collagen-coated plates in serum free Williams’ E medium were infected with Ad/EFYP-hCAR (1 μl/well) for 12 h before treatment with the vehicle control, DMSO (0.1%), PB (1 mM), and selected compounds for another 8 h. Subcellular localization of hCAR was visualized using a Nikon (Tokyo, Japan) C1-LU3 instrument based on an inverted Nikon Eclipse TE2000 microscope.

CYP2B6 = CYP2B6 mRNA expression in HPH (real-time PCR); conditions: HPH; for Induction of hCAR target genes: target genes CYP2B6 and CYP3A4; for Effect on CYP2B6 mRNA expression: 24 h, vs vehicle control (0.1% DMSO)
hPXR = target: T3, hPXR (Homo sapiens, UniProt O75469); assay: Transient hPXR luciferase assay in HepG2 cells (CYP2B6-2.2 kb reporter); type: cell-based; conditions: HepG2, 24 h, in the presence or absence of rifampicin (10 μM)
T3 construct: expressed in transfected cells; host or cells: HepG2 (transient transfection)
T3 sequence (O75469 1-434): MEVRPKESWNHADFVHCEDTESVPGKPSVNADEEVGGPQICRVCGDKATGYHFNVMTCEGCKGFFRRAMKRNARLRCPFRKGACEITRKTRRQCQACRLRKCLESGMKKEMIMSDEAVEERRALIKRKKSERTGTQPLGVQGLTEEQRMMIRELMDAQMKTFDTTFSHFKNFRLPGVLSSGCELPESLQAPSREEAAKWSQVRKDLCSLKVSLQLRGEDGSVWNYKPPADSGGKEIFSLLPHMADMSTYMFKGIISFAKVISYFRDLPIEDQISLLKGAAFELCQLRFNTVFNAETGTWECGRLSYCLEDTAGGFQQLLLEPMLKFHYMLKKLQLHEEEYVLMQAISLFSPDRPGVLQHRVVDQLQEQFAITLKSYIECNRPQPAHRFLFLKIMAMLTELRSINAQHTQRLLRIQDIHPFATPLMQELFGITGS
Experimental: HepG2 cells cultured in a 24-well plate were co-transfected with the CYP2B6-2.2 kb reporter and hPXR expression vectors using a Lipofectamine® 2000 Transfection Kit (Life Technologies) following the manufacturer’s instruction. […] Cell lysates were assayed for firefly luciferase activities normalized against the activities of co-transfected Renilla luciferase using a Dual-Luciferase Kit (Promega). Data were represented as mean±SD of three individual transfections.

HepG2-CYP2B6-hCAR cells = assay: Cell viability assay (CellTiter-Glo ATP quantitation); type: cell-based, human; design: key to Cytotoxicity (activity call): Inactive: considered inactive if efficacy is less than 30%; conditions: 24 h
Experimental: The potential cytotoxicity of the NPC compounds in HepG2-CYP2B6-hCAR cells was measured using a luciferase-coupled ATP quantitation assay (CellTiter-Glo viability assay, Promega). The change of intracellular ATP content indicates the number of metabolically competent cells. The cells were seeded at 2,500 cells/5 μl in 1536-well plates and were exposed to each test compound at concentrations and treatment duration as previously mentioned. The assay plates were incubated for 24 h at 37 °C, followed by the addition of 4 μl/well of CellTiter-Glo reagent. After 30 min incubation at RT, the luminescence intensity of the plates was measured using a ViewLux plate reader.

CYP3A4 = CYP3A4 mRNA expression in HPH (real-time PCR); type: cell-based, human; conditions: HPH, 24 h, vs vehicle control (0.1% DMSO)
human CAR (hCAR) [2] = target: T1, human CAR (hCAR); assay: hCAR luciferase reporter qHTS, antagonist mode (HepG2-CYP2B6-hCAR cells, CITCO co-treatment); conditions: for IC50 / Follow-up Confirmation Efficacy / Primary Screen Efficacy: antagonist mode; for Follow-up Confirmation Efficacy / Primary Screen Efficacy: relative to PK11195 (100%);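 on all read-outs here: stable HepG2 line carrying hCAR plus a CYP2B6 promoter (PBREM/XREM) luciferase reporter, 1536-well format, 24 h compound exposure at 37 °C, then luminescence read with ONE-Glo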
CAR, CYP2B6, or CYP3A4 = conditions: previously known; reference not given; cited from earlier work
[3] = Follow-up Confirmation Potency (EC50), follow-up cherry-pick, 11-point titration
[4] = Primary Screen Potency (EC50), primary qHTS, 2.5 μM PK11195, 24 h
[5] = Follow-up Confirmation Potency (IC50), follow-up cherry-pick, 11-point titration
[6] = Primary Screen Potency (IC50), primary qHTS, 0.1 μM CITCO, 24 h

Row | Compound | EC50 (human CAR (hCAR) [1]; [3]) | EC50 (human CAR (hCAR) [1]; [4]) | Follow-up Confirmation Efficacy (human CAR (hCAR) [1]; follow-up cherry-pick) | Primary Screen Efficacy (human CAR (hCAR) [1]; primary qHTS) | Cytotoxicity (activity call) (HepG2-CYP2B6-hCAR cells) | Effect on CYP3A4 mRNA expression (CYP3A4) | IC50 (human CAR (hCAR) [2]; [5]) | IC50 (human CAR (hCAR) [2]; [6]) | Follow-up Confirmation Efficacy (human CAR (hCAR) [2]; follow-up cherry-pick) | Primary Screen Efficacy (human CAR (hCAR) [2]; primary qHTS) | Known modulator of CAR, CYP2B6, or CYP3A4? (CAR, CYP2B6, or CYP3A4) | also measured
1 | Nc1ccc(Cl)cc1C(=O)c1ccccc1F [2-Amino-5-chloro-2’-fluorobenzophenone] | 15.6 µM | 3.4 µM | 67% | 60% |  |  |  |  |  |  |  | hCAR nuclear translocation (in words) (EYFP-hCAR; listed as ACFB): didn’t translocate hCAR; also recorded: neither translocated hCAR; Induction of hCAR target genes (CYP2B6; listed as ACFB): negligible induction; also recorded: nor induced the expression of its target genes
2 | Nc1ncnc2c1ncn2CCOCP(=O)(O)O [Adefovir] |  |  |  |  | Inactive | negligible effect | 0.77 µM | 0.76 µM | -87% | -102% | CYP3A4 inhibitor | Effect on basal and RIF-induced PXR activity (hPXR): no effects on either basal or RIF-induced hPXR activation
3 | CN1CCc2cccc3c2[C@H]1Cc1ccc(O)c(O)c1-3 [Apomorphine] | 13.3 µM | 19 µM | 38% | 21% |  |  |  |  |  |  |  | hCAR nuclear translocation (in words) (EYFP-hCAR): didn’t translocate hCAR; also recorded: neither translocated hCAR; Induction of hCAR target genes (CYP2B6): negligible induction; also recorded: nor induced the expression of its target genes
4 | CCO[C@H]1O[C@@H]2O[C@@]3(C)CC[C@H]4[C@H](C)CC[C@@H]([C@H]1C)[C@@]24OO3 [Artemotil] | 5 µM | 2.1 µM | 71% | 33% |  | markedly enhanced |  |  |  |  | Activates CAR and Induces CYP2B6 | Effect on CYP2B6 mRNA expression (CYP2B6): significantly induced
5 | COc1cc(Nc2c(C#N)cnc3cc(OCCCN4CCN(C)CC4)c(OC)cc23)c(Cl)cc1Cl [Bosutinib] |  |  |  |  | Inactive |  |  |  |  |  |  | 
6 | Clc1ccc(-c2nc3sccn3c2C=NOCc2ccc(Cl)c(Cl)c2)cc1 [CITCO, 6-(4-chlorophenyl) imidazo[2,1-b][1,3]-thiazole-5-carbaldehyde-O-(3,4-dichlorobenzyl)oxime] |  |  |  |  |  |  |  |  |  |  |  | Effect on hCAR activity (agonist mode optimization, Fig. 1A) (human CAR (hCAR) [1]; PK11195 at 2.5 μM and 5.0 μM, CITCO co-treated with PK11195): restored the hCAR activity in a concentration-dependent manner; Effect on hCAR activity (antagonist mode optimization, Fig. 4A) (human CAR (hCAR) [2]; PK11195 at varying concentrations, CITCO co-treatment at 75 nM, 100 nM, or 200 nM): moderate but concentration-dependent increase of the basal activity of hCAR
7 | COc1cc(N)c(Cl)cc1C(=O)NC1CCN(Cc2ccccc2)CC1 [Clebopride] | 9.4 µM | 7.6 µM | 80% | 52% |  | markedly enhanced |  |  |  |  |  | Effect on CYP2B6 mRNA expression (CYP2B6): significantly induced; also recorded: potent induction exceeding that of CITCO
8 | C[C@H]1O[C@@H](O[C@H]2[C@@H](O)C[C@H](O[C@H]3[C@@H](O)C[C@H](O[C@H]4CC[C@@]5(C)[C@H](CC[C@@H]6[C@@H]5CC[C@]5(C)[C@@H](C7=CC(=O)OC7)CC[C@]65O)C4)O[C@@H]3C)O[C@@H]2C)C[C@H](O)[C@@H]1O [Digitoxin] |  |  |  |  | Inactive |  | 0.29 µM | 0.08 µM | -98% | -76% |  | 
9 | CO[C@@]12[C@H](COC(N)=O)C3=C(C(=O)C(C)=C(N)C3=O)N1C[C@@H]1N[C@@H]12 [Mitomycin C] |  |  |  |  | Inactive |  | 0.75 µM | 0.43 µM | -110% | -91% | PXR deactivator | Identified as hCAR antagonist/deactivator in the qHTS (human CAR (hCAR) [2]; primary qHTS of 2816 NPC compounds): antagonist of hCAR
10 | Cc1c(O)cccc1C(=O)N[C@@H](CSc1ccccc1)[C@H](O)CN1C[C@H]2CCCC[C@H]2C[C@H]1C(=O)NC(C)(C)C [Nelfinavir] |  |  |  |  | Inactive | negligible effect | 11 µM | 9.52 µM | -101% | -88% |  | Effect on basal and RIF-induced PXR activity (hPXR): induced hPXR activation to an extent closer to that of RIF
